In patent publication US5494921A, “Fibrinogen receptor antagonists” (Merck & Co., Inc., priority 1994, dated 1996):

System: gel-filtered human platelets
Experiment: Inhibition of ADP-stimulated platelet aggregation (IC50 Plaggin)
Assay type: cell-based
Conditions: ADP-initiated (10 mM ADP) aggregation of gel-filtered human platelets, fibrinogen 100 ug/ml, Ca2+ 1 mM, 37° C.
Method: Platelet aggregation is measured at 37° C. in a Chronolog aggregometer. The reaction mixture contains gel-filtered human platelets (2×10^8 per ml), fibrinogen (100 micrograms per ml (ug/ml)), Ca^2 +(1 mM), and the compound to be tested. The aggregation is initiated by adding […] ADP 1 minute after the other components are added. The reaction is then allowed to proceed for at least 2 minutes. The extent of inhibition of aggregation is expressed as the percentage of the rate of aggregation observed in the absence of inhibitor. The IC50 is the dose of a particular compound inhibiting aggregation by 50% relative to a control lacking the compound.
In addition to the following preparative procedures, several examples of in vitro bioactivity of compounds within the scope of the present invention are indicated. To illustrate, one test which is used to evaluate fibrinogen receptor antagonist activity is based on evaluation of inhibition of ADP-stimulated platelets. Aggregation requires that fibrinogen bind to and occupy the platelet fibrinogen receptor site. Inhibitors of fibrinogen binding inhibit aggregation. In the ADP-stimulated platelet aggregation assay used to determine inhibition associated with the compounds claimed in the instant invention, human platelets are isolated from fresh blood, collected into acid citrate/dextrose o by differential centrifugation followed by gel filtration on Sepharose 2B in divalent ion-free Tyrode's buffer (pH 7.4) containing 2% bovine serum albumin.

IC50	Compound
210 nM	CCCCS(=O)(=O)N[C@@H](CNC(=O)C1CC1C(=O)NCCC1CCNCC1)C(=O)O (some centres unmarked)
77 nM	CCCCS(=O)(=O)N[C@@H](CNC(=O)[C@@H]1C[C@H]1C(=O)NCCC1CCNCC1)C(=O)O
580 nM	CCCCS(=O)(=O)N[C@@H](CNC(=O)[C@H]1C[C@@H]1C(=O)NCCC1CCNCC1)C(=O)O
3500 nM	CCCCS(=O)(=O)N[C@@H](CCNC(=O)[C@@H]1C[C@H]1C(=O)NCCC1CCNCC1)C(=O)O
17000 nM	CCCCS(=O)(=O)N[C@@H](CCNC(=O)[C@H]1C[C@@H]1C(=O)NCCC1CCNCC1)C(=O)O
140 nM	CCCCS(=O)(=O)N[C@@H](CNC(=O)C1CC1CC(=O)NCCC1CCNCC1)C(=O)O (some centres unmarked)
17000 nM	C[C@H](CC(=O)O)NC(=O)[C@@H]1C[C@H]1C(=O)NCCC1CCNCC1

System: gp IIb/IIIa complex
Experiment: not given
Conditions: cited from earlier work

Compound	affinity for the gp IIb/IIIa complex
Echistatin	high affinity
